One assay has as its system HepG2 hepatoma cells. In words: Cell proliferation assay, HepG2 (CellTiter-Glo, 7 days). The format is cell-based. Conditions: HepG2, 7 days, CellTiter-Glo 2.0. The protocol: (§1) HepG2 hepatoma cells (ATCC, HB-8065) were maintained in DMEM with high glucose (Lonza, 12-914F) supplemented with 10% fetal bovine serum (FBS; Biowest, S181B-500) and 2 mM L-glutamine (Biowest, X0551-100) at 37° C. and 5% CO2. A549 lung carcinoma cells (ATCC, CCL-185) were maintained in F-12K medium (ThermoFisher 21127030) supplemented with 10% FBS at 37° C. and 5% CO2. Exponentially growing HepG2 or A549 were plated in white, clear-bottom 96-well plates (Corning, 3903) at a cell density of 2000 (HepG2) or 350 (A549) cells per well in 199 μL of HepG2 medium. Next, 1 μL of a 5-fold 9-point dilution series of test compound in DMSO was added to the different wells. Cells were incubated at 37° C. 5% CO2 for 7 days. Cell viability was assessed on day 7 with the CellTiter-Glo 2.0 Cell Viability assay kit (Promega, G9243) to quantify the intracellular amounts of ATP: first, 100 μL of cell culture medium was removed from each well, next 100 μL of CellTiter-Glo® 2.0 Reagent was added and plates were shaken for 2 minutes on an orbital shaker. After 10 minutes stabilization at room temperature, read-out was performed on a ThermoFisher VarioSkan Lux plate reader. Counts were normalized to DMSO control (0% inhibition) and the cytotoxic control (100% inhibition) and EC50 values were determined in GraphPad Prism 8 using the [Agonist] vs. response—Variable slope (four parameters) function.
(§2) As shown by the data of Table 2, compounds of Formula (I) have activity in this assay. A value of ‘A’ in the table below indicates an EC50 of <20 nM, a value of ‘B’ indicates an EC50≥20 nM to <100 nM, a value of ‘C’ indicates an EC50 value of EC50≥100 nM to <1000 nM and a value of ‘D’ indicates an EC50≥1000 nM

The test system of assay [1] is A549 lung carcinoma cells. In words: Cell proliferation assay, A549 (CellTiter-Glo, 7 days). It counts as cell-based. Conditions: A549, 7 days, CellTiter-Glo 2.0. The protocol: as §1, §2
For assay [2], the target named is T1, PRMT5/MEP50 (Homo sapiens (Human), UniProt O14744). In words: PRMT5/MEP50 enzyme inhibition assay, Assay 2 (384-well, MALDI mass spectrometry, histone H4 1-21 peptide). It counts as biochemical. Conditions: 1 μM SAM, 0.1 μM histone H4 1-21 peptide, 18-hour incubation at rt. How it is done: Compounds were tested for inhibition of methyltransferase activity in 384-well plate assay format using mass spectrometry technology. In this enzyme inhibition assay, compounds were tested in a 11-dose IC50 mode with 3-serial dilution, in duplicate, starting at 1, 10, or 100 μM. Reactions were carried out at 1 μM SAM and 0.1 μM histone H4 1-21 peptide as substrates for methyl transfer. Following an 18-hour incubation at rt, the reaction was stopped with 0.5% formic acid. Products of the reaction were captured while unreacted substrates were washed away, prior to MALDI mass spectrometry detection and analysis. Percent enzyme activity was calculated based on no inhibitor DMSO control as 100% activity. EC50 values were determined in GraphPad Prism 8 using the [inhibitor] vs. response—Variable slope (four parameters) function.
(§3) Compounds of Formula (I) show activity in this assay. A value of ‘A’ in the table below indicates an IC50 of <1 nM, a value of ‘B’ indicates an IC50≥1 nM to ≤100 nM, and a value of ‘C’ indicates an IC50 value of >100 nM.

In assay [3] the target is T1, PRMT5/MEP50. In words: PRMT5/MEP50 enzyme inhibition assay, Assay 1 (radioisotope filter binding, 3H-SAM, histone H2A). The format is biochemical. Conditions: 1 μM 3H-SAM, 5 μM histone H2A, 60 min at 30° C. The protocol:
Compounds were tested for inhibition of methyltransferase activity in a radioisotope filter binding assay, similar to previously described in A selective inhibitor of PRMT5 with in vivo and in vitro potency in MCL models. Chan-Penebre et al., Nat Chem Biol. (2015) 11(6):432-7. In the standard PRMT5/MEP50 enzyme inhibition assay, compounds were tested in a 10-dose IC50 mode with 3- or 5-fold serial dilution, in singlet, starting at 1, 10, or 100 μM. Control compound, SAH (S-(5′-Adenosyl)-L-homocysteine), was tested in 10-dose IC50 mode with 3-fold serial dilution starting at 100 μM. Reactions were carried out at 1 μM 3H-SAM (PerkinElmer) and 5 μM histone H2A as substrates for methyl transfer. Following a 60 min incubation at 30° C., the reaction was stopped with 20% TCA. Each reaction was spotted on a filter plate (Multiscreen FB Filter plate, Millipore) and washed 5 times in PBS, after which scintillation fluid was added and signal was detected in a scintillation counter. Percent enzyme activity was calculated based on no inhibitor DMSO control as 100% activity. EC50 values were determined in GraphPad Prism 8 using the [inhibitor] vs. response—Variable slope (four parameters) function.
as §3

T1 sequence (O14744 whole entry): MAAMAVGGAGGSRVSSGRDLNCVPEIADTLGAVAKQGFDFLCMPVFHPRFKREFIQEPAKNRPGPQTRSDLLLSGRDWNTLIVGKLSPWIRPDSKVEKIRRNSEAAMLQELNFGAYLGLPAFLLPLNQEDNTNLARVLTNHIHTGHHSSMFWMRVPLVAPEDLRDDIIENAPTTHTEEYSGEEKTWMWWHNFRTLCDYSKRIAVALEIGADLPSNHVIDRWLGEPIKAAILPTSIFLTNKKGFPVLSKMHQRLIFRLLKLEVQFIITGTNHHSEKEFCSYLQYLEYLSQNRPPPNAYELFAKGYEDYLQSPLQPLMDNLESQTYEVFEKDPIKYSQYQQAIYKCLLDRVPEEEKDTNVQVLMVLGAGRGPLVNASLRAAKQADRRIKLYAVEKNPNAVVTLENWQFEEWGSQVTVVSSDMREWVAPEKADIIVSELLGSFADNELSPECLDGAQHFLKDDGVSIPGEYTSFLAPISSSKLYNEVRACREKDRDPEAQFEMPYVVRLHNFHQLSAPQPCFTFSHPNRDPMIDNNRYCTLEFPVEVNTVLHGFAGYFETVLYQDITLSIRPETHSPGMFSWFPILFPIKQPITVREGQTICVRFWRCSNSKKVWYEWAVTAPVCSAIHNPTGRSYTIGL
T1 sequence (Q9BQA1 whole entry partner): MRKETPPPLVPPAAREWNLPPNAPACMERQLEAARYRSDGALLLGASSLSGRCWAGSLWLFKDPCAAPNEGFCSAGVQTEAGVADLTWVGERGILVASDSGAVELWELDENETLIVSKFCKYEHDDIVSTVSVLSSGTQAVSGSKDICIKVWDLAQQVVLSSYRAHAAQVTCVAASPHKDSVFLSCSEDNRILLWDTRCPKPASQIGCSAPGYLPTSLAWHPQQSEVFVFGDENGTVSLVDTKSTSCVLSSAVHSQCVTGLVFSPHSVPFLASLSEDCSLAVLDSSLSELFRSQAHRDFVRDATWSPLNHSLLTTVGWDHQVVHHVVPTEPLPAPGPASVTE

As for `Nc1ncnc2c1ccn2[C@H]1[C@H](O)[C@H](O)[C@]2(C(O)c3ccc(Cl)c(Cl)c3)C[C@H]12` (single isomer, unassigned) [Compound 7, (1R,2R,3S,4R,5S)-4-(4-aminopyrrolo[2,3-d]pyrimidin-7-yl)-1-[(R or S)-(3,4-dichlorophenyl)-hydroxy-methyl]bicyclo[3.1.0]hexane-2,3-diol], the EC50 in the assay on HepG2 hepatoma cells (Homo sapiens, 168 h) is 0.1 to 1 µM; in assay [1], 0.1 to 1 µM. For the same molecule, the IC50 at PRMT5/MEP50 [2] was 0.001 to 0.1 µM; on PRMT5/MEP50 [3], less than 0.001 µM.

Consider `Nc1ncnc2c1ccn2[C@H]1[C@H](O)[C@H](O)[C@]2(C(O)c3ccc(Cl)c(Cl)c3)C[C@H]12` (single isomer, unassigned) [Compound 8, (1R, 2R, 3S, 4R, 5S)-4-(4-aminopyrrolo[2,3-d]pyrimidin-7-yl)-1-[(S or R)-(3,4-dichlorophenyl)-hydroxy-methyl]bicyclo[3.1.0]hexane-2,3-diol], for which the EC50 is 0.1 to 1 µM with HepG2 hepatoma cells and no less than 1 µM in assay [1]. The values for the half-maximal inhibitory concentration (IC50) on PRMT5/MEP50 [2] and at PRMT5/MEP50 [3] were greater than 0.1 µM and 0.001 to 0.1 µM, respectively.

Turning to `C[C@]1(/C=C/c2ccc3cc(Br)c(N)nc3c2)C[C@@H](n2ccc3c(N)ncnc32)[C@H](O)[C@@H]1O` [Compound 1], the IC50 on PRMT5/MEP50 [3] was less than 0.001 µM.

For `Nc1nc2cc(CC[C@@]34C[C@@H]3[C@@H](n3ccc5c(N)ncnc53)[C@H](O)[C@@H]4O)ccc2cc1Br` [Compound 2], the EC50 (in the assay on HepG2 hepatoma cells; in assay [1]) was less than 0.02 µM each time. For the same molecule, the IC50 at PRMT5/MEP50 [2] and on PRMT5/MEP50 [3] was less than 0.001 µM in each case.

In the case of `Nc1nc2cc(CC[C@@]3(CO)C[C@@H](n4ccc5c(N)ncnc54)[C@H](O)[C@@H]3O)cc(F)c2cc1Cl` [Compound 40, (1S,2R,3S,5R)-3-(2-(2-amino-3-chloro-5-fluoroquinolin-7-yl)ethyl)-5-(4-amino-7H-pyrrolo[2,3-d]pyrimidin-7-yl)-3-(hydroxymethyl)cyclopentane-1,2-diol], the EC50 in the assay on HepG2 hepatoma cells (Homo sapiens, 168 h) was less than 0.02 µM; in assay [1] (Homo sapiens, A549, 168 h), less than 0.02 µM. The 50% inhibitory concentration (IC50) against PRMT5/MEP50 [2] was less than 0.001 µM.

As for `C[C@]1(CCc2cc3nc(N)ccc3c(F)c2F)C[C@@H](n2ccc3c(N)ncnc32)[C@H](O)[C@@H]1O` [Compound 41, (1S,2R,3S,5R)-3-(2-(2-amino-5,6-difluoroquinolin-7-yl)ethyl)-5-(4-amino-7H-pyrrolo[2,3-d]pyrimidin-7-yl)-3-methylcyclopentane-1,2-diol], the EC50 with HepG2 hepatoma cells (Homo sapiens, 168 h) is less than 0.02 µM; in assay [1] (Homo sapiens, A549, 168 h), less than 0.02 µM. On PRMT5/MEP50 [2], this molecule gave an IC50 of less than 0.001 µM.

For the molecule `C[C@]1(CCc2cc(F)c3ccc(N)nc3c2)C[C@@H](n2ccc3c(N)ncc(F)c32)[C@H](O)[C@@H]1O` [Compound 42, (1S,2R,3S,5R)-3-(2-(2-amino-5-fluoroquinolin-7-yl)ethyl)-5-(4-amino-7-fluoro-1H-pyrrolo[3,2-c]pyridin-1-yl)-3-methylcyclopentane-1,2-diol], the EC50 is less than 0.02 µM with HepG2 hepatoma cells (Homo sapiens, 168 h) and less than 0.02 µM in assay [1] (Homo sapiens, A549, 168 h). Further, the IC50 at PRMT5/MEP50 [2] is less than 0.001 µM.

As for `C[C@]1(CCc2cc(F)c3cc(Cl)c(N)nc3c2)C[C@@H](n2cc(F)c3c(N)nccc32)[C@H](O)[C@@H]1O` [Compound 43, (1S,2R,3S,5R)-3-(2-(2-amino-3-chloro-5-fluoroquinolin-7-yl)ethyl)-5-(4-amino-3-fluoro-1H-pyrrolo[3,2-c]pyridin-1-yl)-3-methylcyclopentane-1,2-diol], the EC50 was 0.02 to 0.1 µM in the assay on HepG2 hepatoma cells (Homo sapiens, 168 h) and less than 0.02 µM in assay [1] (Homo sapiens, A549, 168 h). Moreover, the IC50 at PRMT5/MEP50 [2] is less than 0.001 µM.

For `N#C[C@]1(CCc2cc(F)c3cc(Cl)c(N)nc3c2)C[C@@H](n2ccc3c(N)ncnc32)[C@H](O)[C@@H]1O` [Compound 44, (1S,2R,3S,4R)-1-(2-(2-amino-3-chloro-5-fluoroquinolin-7-yl)ethyl)-4-(4-amino-7H-pyrrolo[2,3-d]pyrimidin-7-yl)-2,3-dihydroxycyclopentane-1-carbonitrile], the EC50 with HepG2 hepatoma cells (Homo sapiens, 168 h) fell in the range of 0.1 to 1 µM; in assay [1] (Homo sapiens, A549, 168 h), 0.02 to 0.1 µM. In addition, the IC50 against PRMT5/MEP50 [2] is less than 0.001 µM.

In the case of `NC(=O)[C@]1(CCc2cc(F)c3cc(Cl)c(N)nc3c2)C[C@@H](n2ccc3c(N)ncnc32)[C@H](O)[C@@H]1O` [Compound 45, (1R,2R,3S,4R)-1-(2-(2-amino-3-chloro-5-fluoroquinolin-7-yl)ethyl)-4-(4-amino-7H-pyrrolo[2,3-d]pyrimidin-7-yl)-2,3-dihydroxycyclopentane-1-carboxamide], the EC50 is 0.1 to 1 µM in the assay on HepG2 hepatoma cells (Homo sapiens, 168 h) and 0.1 to 1 µM in assay [1] (Homo sapiens, A549, 168 h). The same molecule yielded an IC50 against PRMT5/MEP50 [2] of less than 0.001 µM.

As for `C[C@]1(CCCCc2ccc(Cl)c(N)n2)C[C@@H](n2ccc3c(N)ncnc32)[C@H](O)[C@@H]1O` [Compound 46, (1S,2R,3S,5R)-3-(4-(6-amino-5-chloropyridin-2-yl)butyl)-5-(4-amino-7H-pyrrolo[2,3-d]pyrimidin-7-yl)-3-methylcyclopentane-1,2-diol], the EC50 was in the range of 0.1 to 1 µM with HepG2 hepatoma cells (Homo sapiens, 168 h) and 0.1 to 1 µM in assay [1] (Homo sapiens, A549, 168 h). The molecule also registered an IC50 against PRMT5/MEP50 [2] of less than 0.001 µM.

In the case of `C[C@]1(CCCCc2cccc(N)n2)C[C@@H](n2ccc3c(N)ncnc32)[C@H](O)[C@@H]1O` [Compound 47], the EC50 in the assay on HepG2 hepatoma cells (Homo sapiens, 168 h) was 0.1 to 1 µM; in assay [1] (Homo sapiens, A549, 168 h), 0.02 to 0.1 µM. The IC50 against PRMT5/MEP50 [2] is less than 0.001 µM.

On to `C[C@]1(CCc2ccc3ccc(N)nc3c2)C[C@@H](c2ccc3c(N)ncnn23)[C@H](O)[C@@H]1O` [Compound 48], for which the EC50 in the assay with HepG2 hepatoma cells (Homo sapiens, 168 h) is less than 0.02 µM; in assay [1] (Homo sapiens, A549, 168 h) it was less than 0.02 µM. For the same molecule, the IC50 against PRMT5/MEP50 [2] is less than 0.001 µM.

As for `C[C@]1(CCc2ccc3cc(Cl)c(N)nc3c2)C[C@@H](n2ccc3c(N)ncc(F)c32)[C@H](O)[C@@H]1O` [Compound 49], the EC50 was less than 0.02 µM with HepG2 hepatoma cells (Homo sapiens, 168 h) and less than 0.02 µM in assay [1] (Homo sapiens, A549, 168 h). Further, at PRMT5/MEP50 [2], the IC50 is less than 0.001 µM.

For `C=C[C@]1(CCc2cc(F)c3cc(Cl)c(N)nc3c2)C[C@@H](n2ccc3c(N)ncnc32)[C@H](O)[C@@H]1O` [Compound 51], the EC50 with HepG2 hepatoma cells (Homo sapiens, 168 h) was less than 0.02 µM; in assay [1] (Homo sapiens, A549, 168 h) it was less than 0.02 µM. On PRMT5/MEP50 [2], the IC50 was less than 0.001 µM.

Consider `C#C[C@]1(CCc2cc(F)c3cc(Cl)c(N)nc3c2)C[C@@H](n2ccc3c(N)ncnc32)[C@H](O)[C@@H]1O` [Compound 52], for which the EC50 in the assay with HepG2 hepatoma cells (Homo sapiens, 168 h) was less than 0.02 µM; in assay [1] (Homo sapiens, A549, 168 h), less than 0.02 µM. On PRMT5/MEP50 [2], the IC50 was less than 0.001 µM.

For the molecule `C[C@]1(CCc2cc(F)c3cc(Cl)c(N)nc3c2)C[C@@H](n2ccc3c(N)nc(Cl)nc32)[C@H](O)[C@@H]1O` [Compound 53], the EC50 (in the assay on HepG2 hepatoma cells; in assay [1]) was less than 0.02 µM in each case. The IC50 at PRMT5/MEP50 [2] is less than 0.001 µM.

As to `C[C@]1(CCc2ccc3cc(Br)c(N)nc3c2)C[C@@H](n2ccc3c(N)nc(Cl)nc32)[C@H](O)[C@@H]1O` [Compound 54], the EC50 in the assay on HepG2 hepatoma cells (Homo sapiens, 168 h) is less than 0.02 µM; in assay [1] (Homo sapiens, A549, 168 h), less than 0.02 µM. This molecule also displayed an IC50 at PRMT5/MEP50 [2] of less than 0.001 µM.

In the case of `C[C@]1(CCc2ccc3ccc(N)nc3c2)C[C@@H](c2cnn3c(N)ncnc23)[C@H](O)[C@@H]1O` [Compound 56], the EC50 in the assay with HepG2 hepatoma cells (Homo sapiens, 168 h) is less than 0.02 µM; in assay [1] (Homo sapiens, A549, 168 h) it was less than 0.02 µM. Also, on PRMT5/MEP50 [2], the IC50 is less than 0.001 µM.

The values above are taken from patent US11198699B2 (ALIGOS THERAPEUTICS, INC., priority 2019, dated 2021).
